{"source": "paper PMC4351682", "about": "“Formononetin inhibits enterovirus 71 replication by regulating COX- 2/PGE2 expression” (Virology Journal, 2015)", "key": {"EV71 VP1 protein": {"tested_on": "EV71 VP1 protein", "test": "Immunofluorescence assay of EV71 VP1 protein in SK-N-SH cells", "format": "cell-based, enterovirus 71", "conditions": "EV71 SHZH98 160 pfu/well, 24 h treatment", "text": "Figure 2 The antiviral effect of formononetin and pirodavir against EV71 in SK-N-SH cells. (A) Formononetin and pirodavir reduced the expression of EV71 VP1 protein in SK-N-SH cells by western blot assay. (B) Formononetin and pirodavir reduced the expression of EV71 VP1 protein in SK-N-SH cells by immunofluorescence assay. Cells were examined using a fluorescence microscopy (×100). (C) Formononetin and pirodavir reduced the expression of EV71 VP1 RNA by one-step qRT-PCR assay. *P < 0.001 ^# P < 0.05.\nSK-N-SH cells grown on glass coverslips (Thermo) were infected with EV71 (SHZH98) of 160 pfu/well for 2 h. Then, various concentrations of formononetin were supplemented for incubation of another 24 h. After incubation, the culture medium was removed and the cells were washed and fixed. The cells were permeabilized in 0.5% Triton X-100 at room temperature for 15 min and blocked in PBS containing 1% BSA for 60 min at room temperature. Cells were then incubated with an anti-EV71 VP1 antibody (Abnova) at a dilution of 1: 500 for 2 h at room temperature. After washing three times with PBS, the samples were reacted with Alexa Fluor 488-labeled goat anti-mouse secondary antibody (Beyotime Institute of Biotechnology, China) for 1 h at room temperature. After washing with PBS, images were taken using a fluorescence microscope (Olympus, IX71)."}, "CVB6 (strain Schmitt)": {"tested_on": "CVB6 (strain Schmitt)", "test": "CPE inhibition assay for anti-CVBs, CVB6 in Vero cells", "format": "cell-based, coxsackievirus B6", "conditions": "Enterovirus B, CVB6, 100 TCID50, Vero cells", "protocol": "(§1) The anti-virus activity of formononetin on CVBs was also assayed by CPE method. Briefly, cells (3 × 10^4 cells/well) were plated into 96-well culture plates for incubation of 24 h. The medium was removed and cells were infected with 100 TCID50 of CVB2, CVB6 or CVB3. Then, various concentrations of formononetin were supplemented for incubation of another 48 h. The IC50 was determined by Reed and Muench method. The SI was calculated as the ratio of TC50/IC50 [19]."}, "SK-N-SH cells": {"tested_on": "SK-N-SH cells", "test": "Cytotoxicity assay (MTS) in SK-N-SH cells", "format": "cell-based", "conditions": "3 days", "protocol": "(§2) Cytotoxic effect of formononetin on Vero or SK-N-SH cells was assayed by MTS (promega) assay. Briefly, cells (3 × 10^4 cells/well) were seeded into 96-well culture plates and were incubated overnight. Then, the medium was removed and different concentrations of formononetin were applied in triplicate. After 3 days’ incubation, the cytotoxicity of formononetin was determined by MTS assay. The TC50 was defined as the concentration that inhibits 50% cellular growth in comparison with the controls and the TC0 was defined as the maximal non-toxicity dose."}, "CVB3 (strain Nancy)": {"tested_on": "CVB3 (strain Nancy)", "test": "CPE inhibition assay for anti-CVBs, CVB3 in Vero cells", "format": "cell-based, coxsackievirus B3", "conditions": "Enterovirus B, CVB3, 100 TCID50, Vero cells", "protocol": "as §1"}, "EV71 strain H": {"tested_on": "EV71 strain H", "test": "CPE inhibition assay, EV71 strain H in Vero cells", "format": "cell-based, enterovirus 71", "conditions": "Enterovirus A", "protocol": "The anti-EV71 activity of formononetin was assayed by CPE inhibition method. Briefly, cells (3 × 10^4 cells/well) were plated into 96-well culture plates for incubation of 24 h. The medium was then removed and cells were infected with EV71 of 80 pfu/well. Then, various concentrations of formononetin were supplemented for incubation of another 48 h. The IC50 defined as the minimal concentration of inhibitor required to inhibit 50% of CPE was determined by Reed & Muench method. The selectivity index (SI) was calculated as the ratio of TC50/IC50 [19]."}, "CVB2 (strain Ohio-1)": {"tested_on": "CVB2 (strain Ohio-1)", "test": "CPE inhibition assay for anti-CVBs, CVB2 in Vero cells", "format": "cell-based, coxsackievirus B2", "conditions": "Enterovirus B, CVB2, 100 TCID50, Vero cells", "protocol": "as §1"}, "Vero cells": {"tested_on": "Vero cells", "test": "Cytotoxicity assay (MTS) in Vero cells", "format": "cell-based", "conditions": "3 days", "protocol": "as §2"}}}
{"smiles": "CCOC(=O)c1ccc(OCCC2CCN(c3ccc(C)nn3)CC2)cc1", "note": "[Pirodavir, reference compound]", "values": [{"measurement": "Expression of EV71 VP1 protein (immunofluorescence assay)", "setting": "EV71 VP1 protein", "result": "reduced"}]}
{"smiles": "COc1ccc(-c2coc3cc(O)ccc3c2=O)cc1", "note": "[Formononetin]", "values": [{"measurement": "IC50", "setting": "CVB6 (strain Schmitt)", "result": "5.33 ± 1.48", "unit": "µM"}, {"measurement": "TC0 (maximal non-toxicity dose)", "setting": "SK-N-SH cells", "result": "55.92 ± 0", "unit": "µmol/L"}, {"measurement": "TC50 (50% toxicity concentration)", "setting": "SK-N-SH cells", "result": "198.80 ± 6.02", "unit": "µmol/L"}, {"measurement": "TC0 (maximal non-toxicity dose)", "setting": "SK-N-SH cells; listed as formononetin", "result": 55.92, "unit": "µmol/L"}, {"measurement": "TC50 (50% toxicity concentration)", "setting": "SK-N-SH cells; listed as formononetin", "result": 198.80, "unit": "µmol/L"}, {"measurement": "IC50", "setting": "CVB3 (strain Nancy)", "result": "2570 ± 870", "unit": "nM"}, {"measurement": "IC50", "setting": "EV71 strain H", "result": "11.1 ± 9.23", "unit": "µM"}, {"measurement": "IC50", "setting": "CVB2 (strain Ohio-1)", "result": "9.56 ± 2.23", "unit": "µM"}, {"measurement": "TC0 (maximal non-toxicity dose)", "setting": "Vero cells", "result": "41.42 ± 0", "unit": "µmol/L"}, {"measurement": "TC50 (50% toxicity concentration)", "setting": "Vero cells", "result": "149.38 ± 12.15", "unit": "µmol/L"}, {"measurement": "TC0 (maximal non-toxicity dose)", "setting": "Vero cells; listed as formononetin", "result": 41.42, "unit": "µmol/L"}, {"measurement": "TC50 (50% toxicity concentration)", "setting": "Vero cells; listed as formononetin", "result": 149.38, "unit": "µmol/L"}]}
